Results reported in ChEMBL document CHEMBL1201862, “PubChem BioAssay data set” (2004).
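Following 48 hours of exposure in 96-well plates, responses at five concentrations were used to interpolate endpoints linearly. Here, GI50 denotes the concentration required for 50% inhibition of growth.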 Calls of active or inactive are those of the source. No stated cut-off is given here; in the data, active = GI50 up to about 1.1 µM and inactive = higher.

Experiments:
Experiment in all cases: growth of human tumour cells (NCI), 48 h
SNB-19 = test system: SNB-19
RPMI-8226 = test system: RPMI-8226
CAKI-1 = test system: CAKI-1
NCI-H226 = test system: NCI-H226
SR = test system: SR
K562 = test system: K562
TK-10 = test system: TK-10
EKVX = test system: EKVX
OVCAR-4 = test system: OVCAR-4
DU-145 = test system: DU-145
HOP-62 = test system: HOP-62
786-0 = test system: 786-0
MDA-N = test system: MDA-N
BT-549 = test system: BT-549
HT-29 = test system: HT-29
Malme-3M = test system: Malme-3M
SN12C = test system: SN12C
UO-31 = test system: UO-31
RXF 393 = test system: RXF 393
SF-268 = test system: SF-268
SK-MEL-5 = test system: SK-MEL-5
MOLT-4 = test system: MOLT-4
HCT-15 = test system: HCT-15
M14 = test system: M14
OVCAR-8 = test system: OVCAR-8
KM12 = test system: KM12
CCRF-CEM = test system: CCRF-CEM
HOP-92 = test system: HOP-92
NCI-H522 = test system: NCI-H522
OVCAR-3 = test system: OVCAR-3
NCI-H23 = test system: NCI-H23
SK-OV-3 = test system: SK-OV-3
SNB-75 = test system: SNB-75
UACC-257 = test system: UACC-257
ACHN = test system: ACHN
NCI-H460 = test system: NCI-H460
HCT-116 = test system: HCT-116
U-251 = test system: U-251
SK-MEL-28 = test system: SK-MEL-28
SW-620 = test system: SW-620
MDA-MB-231 = test system: MDA-MB-231
COLO 205 = test system: COLO 205
PC-3 = test system: PC-3
NCI/ADR-RES = test system: NCI/ADR-RES
OVCAR-5 = test system: OVCAR-5
UACC-62 = test system: UACC-62
T47D = test system: T47D
MCF7 = test system: MCF7
SK-MEL-2 = test system: SK-MEL-2
SF-295 = test system: SF-295
A549 = test system: A549
MDA-MB-435 = test system: MDA-MB-435
LOX IMVI = test system: LOX IMVI
A498 = test system: A498
Hs-578T = test system: Hs-578T
IGROV-1 = test system: IGROV-1

Measured: GI50

O=C(O)C12CC3(C(=O)O)CC(C(=O)O)(CC(C(=O)O)(C1)C3=O)C2=O
> 100 µM: HCT-15
inactive: SNB-19 > 100 µM | RPMI-8226 > 100 µM | CAKI-1 > 100 µM | NCI-H226 > 100 µM | SR > 100 µM | K562 > 100 µM | TK-10 > 100 µM | EKVX > 100 µM | OVCAR-4 > 100 µM | DU-145 > 100 µM | HOP-62 > 100 µM | 786-0 > 100 µM | MDA-N > 100 µM | BT-549 > 100 µM | HT-29 > 100 µM | Malme-3M > 100 µM | SN12C > 100 µM | UO-31 > 100 µM | RXF 393 > 100 µM | SF-268 > 100 µM | SK-MEL-5 > 100 µM | MOLT-4 > 100 µM | M14 > 100 µM | OVCAR-8 > 100 µM | KM12 > 100 µM | CCRF-CEM > 100 µM | HOP-92 > 100 µM | NCI-H522 > 100 µM | OVCAR-3 > 100 µM | NCI-H23 > 100 µM | SK-OV-3 > 100 µM | SNB-75 > 100 µM | UACC-257 > 100 µM | ACHN > 100 µM | NCI-H460 > 100 µM | HCT-116 > 100 µM | U-251 > 100 µM | SK-MEL-28 > 100 µM | SW-620 > 100 µM | MDA-MB-231 > 100 µM | COLO 205 > 100 µM | PC-3 > 100 µM | NCI/ADR-RES > 100 µM | OVCAR-5 > 100 µM | UACC-62 > 100 µM | T47D > 100 µM | MCF7 > 100 µM | SK-MEL-2 > 100 µM | SF-295 > 100 µM | A549 > 100 µM | MDA-MB-435 > 100 µM | LOX IMVI > 100 µM | A498 > 100 µM | Hs-578T > 100 µM | IGROV-1 > 100 µM
